The values that follow come from patent US7626031B2, “Substituted 3-(diarylmethylene)indolin-2-ones and methods of their use” (Symphony Evolution, Inc., priority 2002, dated 2009).

For orientation: IC50 means the midpoint of a concentration-inhibition curve.

The structures appear in SMILES notation.

For assay [1], the target named is T1, KDR (baculovirus expressed human KDR kinase domain D807-V1356) (Homo sapiens, UniProt P35968).
T1 construct: human KDR kinase domain D807-V1356; host or cells: baculovirus expression system
In words: biochemical. In outline: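 Baculovirus human KDR kinase domain (D807–V1356) with ATP near its KM; 10-point dose-response, 4 h at ambient temperature. Activity taken as percent ATP remaining, detected by luciferase–luciferin chemiluminescence.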

Assay [2] deals with EphA2 (Homo sapiens, UniProt P29317). Nature of the assay: Kinase assay, EphA2 (33P-ATP incorporation or luciferase-coupled ATP consumption). The assay is classed as biochemical. In a few lines: (§1)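 Radiometric format: γ-33P ATP incorporation into plate-immobilized myelin basic protein, enzyme 10 nM or 20 nM, 10 μM or 30 μM unlabeled ATP, 1 h at room temperature, 1% DMSO, scintillation counting; alternatively luciferase-measured ATP consumption with pEY substrate. ATP set near each kinase's KM; 10-point dose-response.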

The target of assay [3] is EGFR (Homo sapiens, UniProt P00533). In words: Kinase assay, EGFR (33P-ATP incorporation or luciferase-coupled ATP consumption). The assay is classed as biochemical. In a few lines: as §1
In assay [4] the target is ALK (Homo sapiens, UniProt Q9UM73). Nature of the assay: Kinase assay, ALK (33P-ATP incorporation or luciferase-coupled ATP consumption). The assay is classed as biochemical. The procedure:
Kinase assays were performed by measurement of incorporation of γ-^33P ATP into immobilized myelin basic protein (MBP). […] Plates were washed 3× with 100 μl TBS. […] Compound dilutions were performed in DMSO and added to assay wells to a final DMSO concentration of 1%. Each data point was measured in duplicate, and at least two duplicate assays were performed for each individual compound determination. Enzyme was added to final concentrations of 10 nM or 20 nM, for example. A mixture of unlabeled ATP and γ-^33P ATP was added to start the reaction (2×10^6 cpm of γ-^33P ATP per well (3000 Ci/mmole) and either 10 μM or 30 μM unlabeled ATP, typically. The reactions were carried out for 1 hour at room temperature with shaking. Plates were washed 7× with TBS, followed by the addition of 50 μl/well scintillation fluid (Wallac). Plates were read using a Wallac Trilux counter. This is only one format of such assays, various other formats are possible, as known to one of ordinary skill in the art.
Tyrosine kinase activity is determined by 1) measurement of kinase-dependent ATP consumption by in the presence of a generic substrate such as, polyglutamic acid, tyrosine, 4:1 (pEY), by luciferase/luciferin-mediated chemiluminescence or; 2) incorporation of radioactive phosphate derived from ^33P-ATP into a generic substrate which has been adsorbed onto the well surface of polystyrene microtiter plates. Phosphorylated substrate products are quantified by scintillation spectrometry.
(§2) Kinase activity and compound inhibition are investigated using one or more assay formats. The ATP concentrations for each assay are selected to be close to the Michaelis-Menten constant (KM) for each individual kinase. Dose-response experiments are performed at 10 different inhibitor concentrations in a 384-well plate format. […] Exemplary kinase assays are described below. KDR Assay

Assay [5] deals with FGFR1 (Homo sapiens, UniProt P11362). Nature of the assay: Kinase assay, FGFR1 (33P-ATP incorporation or luciferase-coupled ATP consumption). The assay is classed as biochemical. In outline:
as §1

In assay [6] the target is PDGFR alpha (Homo sapiens, UniProt P16234). In words: Kinase assay, PDGFR alpha (33P-ATP incorporation or luciferase-coupled ATP consumption). The assay is classed as biochemical. Particulars: read-out: PDGF-R-A IC50. In outline: as §1
Assay [7] addresses Fyn (Homo sapiens, UniProt P06241). In words: Kinase assay, Fyn. The assay is classed as biochemical. The procedure: as §2
Assay [8] concerns the target IRK (Homo sapiens, UniProt P06213). In words: Kinase assay, IRK. The assay is classed as biochemical. The method, then:
as §2

Assay [9] has as its target c-Kit kinase (Homo sapiens, UniProt P10721). In words: c-Kit AlphaScreen kinase assay. The assay is classed as biochemical. The method, then: as §2
c-Kit biochemical activity was assessed using AlphaScreen™ (Perkin Elmer) technology, described above. Test compounds, ATP, biotinylated poly(Glu, Tyr) and c-Kit kinase were combined in a volume of 20 μL in a 384-well white, medium binding microtiter plate (Greiner). Reaction mixtures were incubated for 1 hr at ambient temperature. Reactions were quenched by addition of 10 uL of […] AlphaScreen bead suspension containing 75 mM Hepes, pH 7.4, 300 mM NaCl, 120 mM EDTA, 0.3% BSA and 0.03% Tween-20. After 16 hr incubation at ambient temperature plates were read using an AlphaQuest reader (Perkin Elmer).

Assay [10] has as its target Flt-1 (Homo sapiens, UniProt P17948). Nature of the assay: Kinase assay, Flt-1 (33P-ATP incorporation or luciferase-coupled ATP consumption). The assay is classed as biochemical. Particulars: read-out: Flt1 IC50. In outline: as §1

Sequence of EphA2 (P29317 24-976, species assumed): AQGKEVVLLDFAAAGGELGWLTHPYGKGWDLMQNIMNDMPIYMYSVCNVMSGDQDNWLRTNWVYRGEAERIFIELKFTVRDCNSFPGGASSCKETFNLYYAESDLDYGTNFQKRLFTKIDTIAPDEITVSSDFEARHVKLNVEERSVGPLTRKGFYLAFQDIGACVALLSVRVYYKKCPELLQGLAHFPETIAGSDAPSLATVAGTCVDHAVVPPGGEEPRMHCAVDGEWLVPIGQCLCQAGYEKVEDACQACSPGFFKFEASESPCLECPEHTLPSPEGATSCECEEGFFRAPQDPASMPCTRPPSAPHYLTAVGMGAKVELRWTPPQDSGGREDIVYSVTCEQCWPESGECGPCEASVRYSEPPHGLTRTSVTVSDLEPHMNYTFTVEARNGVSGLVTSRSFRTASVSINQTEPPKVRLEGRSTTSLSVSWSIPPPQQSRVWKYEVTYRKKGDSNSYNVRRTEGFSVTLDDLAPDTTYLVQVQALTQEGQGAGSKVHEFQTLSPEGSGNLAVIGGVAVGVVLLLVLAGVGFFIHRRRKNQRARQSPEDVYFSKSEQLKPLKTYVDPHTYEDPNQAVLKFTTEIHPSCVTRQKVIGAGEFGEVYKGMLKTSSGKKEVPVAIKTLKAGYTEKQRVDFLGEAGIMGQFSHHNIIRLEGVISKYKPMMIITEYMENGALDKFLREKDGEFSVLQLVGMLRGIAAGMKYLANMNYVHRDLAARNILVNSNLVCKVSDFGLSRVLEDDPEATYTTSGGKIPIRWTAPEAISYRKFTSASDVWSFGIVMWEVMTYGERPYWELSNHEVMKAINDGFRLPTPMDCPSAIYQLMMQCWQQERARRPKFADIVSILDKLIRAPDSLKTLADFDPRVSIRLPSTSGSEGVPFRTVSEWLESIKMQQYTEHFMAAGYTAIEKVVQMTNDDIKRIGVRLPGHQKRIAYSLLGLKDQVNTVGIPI
Sequence of ALK (Q9UM73 19-1620, species assumed): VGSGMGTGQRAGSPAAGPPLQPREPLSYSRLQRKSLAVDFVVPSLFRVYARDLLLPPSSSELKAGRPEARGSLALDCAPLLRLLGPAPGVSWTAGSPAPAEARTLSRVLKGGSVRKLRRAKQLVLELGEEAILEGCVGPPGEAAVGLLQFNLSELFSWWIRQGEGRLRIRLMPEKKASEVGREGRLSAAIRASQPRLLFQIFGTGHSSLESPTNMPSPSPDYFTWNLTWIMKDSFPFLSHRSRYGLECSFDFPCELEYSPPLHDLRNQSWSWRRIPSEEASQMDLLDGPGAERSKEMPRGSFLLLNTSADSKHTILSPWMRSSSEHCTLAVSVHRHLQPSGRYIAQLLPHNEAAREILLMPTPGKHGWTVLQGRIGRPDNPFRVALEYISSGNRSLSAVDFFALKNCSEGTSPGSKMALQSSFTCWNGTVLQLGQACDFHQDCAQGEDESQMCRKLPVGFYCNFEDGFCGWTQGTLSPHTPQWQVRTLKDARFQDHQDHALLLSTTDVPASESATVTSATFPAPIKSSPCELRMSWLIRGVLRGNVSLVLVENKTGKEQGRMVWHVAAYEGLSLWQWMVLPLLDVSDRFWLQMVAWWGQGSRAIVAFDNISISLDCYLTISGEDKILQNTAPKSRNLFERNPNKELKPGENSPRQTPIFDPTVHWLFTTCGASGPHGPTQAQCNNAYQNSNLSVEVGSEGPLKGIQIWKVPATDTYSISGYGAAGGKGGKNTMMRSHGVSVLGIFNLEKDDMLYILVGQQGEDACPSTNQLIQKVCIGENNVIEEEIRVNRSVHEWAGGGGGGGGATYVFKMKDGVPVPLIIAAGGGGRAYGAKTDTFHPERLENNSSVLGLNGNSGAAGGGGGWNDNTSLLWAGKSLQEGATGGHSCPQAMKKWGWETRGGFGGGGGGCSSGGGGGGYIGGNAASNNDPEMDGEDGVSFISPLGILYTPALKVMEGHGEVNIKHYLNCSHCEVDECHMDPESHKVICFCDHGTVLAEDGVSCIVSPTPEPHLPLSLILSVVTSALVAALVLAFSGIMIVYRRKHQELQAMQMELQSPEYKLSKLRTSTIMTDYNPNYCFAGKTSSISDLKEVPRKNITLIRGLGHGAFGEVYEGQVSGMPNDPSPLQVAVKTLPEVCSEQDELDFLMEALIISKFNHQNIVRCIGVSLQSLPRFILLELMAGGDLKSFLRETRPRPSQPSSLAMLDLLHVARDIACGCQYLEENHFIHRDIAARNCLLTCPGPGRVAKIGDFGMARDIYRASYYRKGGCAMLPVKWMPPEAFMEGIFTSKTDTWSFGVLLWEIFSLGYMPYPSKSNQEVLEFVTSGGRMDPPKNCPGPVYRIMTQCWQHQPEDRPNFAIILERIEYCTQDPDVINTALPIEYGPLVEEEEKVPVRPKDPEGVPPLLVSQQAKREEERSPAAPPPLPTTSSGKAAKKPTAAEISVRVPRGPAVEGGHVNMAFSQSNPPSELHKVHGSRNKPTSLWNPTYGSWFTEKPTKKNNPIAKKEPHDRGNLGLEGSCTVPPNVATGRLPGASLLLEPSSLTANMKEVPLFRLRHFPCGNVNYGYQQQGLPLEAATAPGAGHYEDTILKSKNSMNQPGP
Sequence of IRK (P06213 28-1382): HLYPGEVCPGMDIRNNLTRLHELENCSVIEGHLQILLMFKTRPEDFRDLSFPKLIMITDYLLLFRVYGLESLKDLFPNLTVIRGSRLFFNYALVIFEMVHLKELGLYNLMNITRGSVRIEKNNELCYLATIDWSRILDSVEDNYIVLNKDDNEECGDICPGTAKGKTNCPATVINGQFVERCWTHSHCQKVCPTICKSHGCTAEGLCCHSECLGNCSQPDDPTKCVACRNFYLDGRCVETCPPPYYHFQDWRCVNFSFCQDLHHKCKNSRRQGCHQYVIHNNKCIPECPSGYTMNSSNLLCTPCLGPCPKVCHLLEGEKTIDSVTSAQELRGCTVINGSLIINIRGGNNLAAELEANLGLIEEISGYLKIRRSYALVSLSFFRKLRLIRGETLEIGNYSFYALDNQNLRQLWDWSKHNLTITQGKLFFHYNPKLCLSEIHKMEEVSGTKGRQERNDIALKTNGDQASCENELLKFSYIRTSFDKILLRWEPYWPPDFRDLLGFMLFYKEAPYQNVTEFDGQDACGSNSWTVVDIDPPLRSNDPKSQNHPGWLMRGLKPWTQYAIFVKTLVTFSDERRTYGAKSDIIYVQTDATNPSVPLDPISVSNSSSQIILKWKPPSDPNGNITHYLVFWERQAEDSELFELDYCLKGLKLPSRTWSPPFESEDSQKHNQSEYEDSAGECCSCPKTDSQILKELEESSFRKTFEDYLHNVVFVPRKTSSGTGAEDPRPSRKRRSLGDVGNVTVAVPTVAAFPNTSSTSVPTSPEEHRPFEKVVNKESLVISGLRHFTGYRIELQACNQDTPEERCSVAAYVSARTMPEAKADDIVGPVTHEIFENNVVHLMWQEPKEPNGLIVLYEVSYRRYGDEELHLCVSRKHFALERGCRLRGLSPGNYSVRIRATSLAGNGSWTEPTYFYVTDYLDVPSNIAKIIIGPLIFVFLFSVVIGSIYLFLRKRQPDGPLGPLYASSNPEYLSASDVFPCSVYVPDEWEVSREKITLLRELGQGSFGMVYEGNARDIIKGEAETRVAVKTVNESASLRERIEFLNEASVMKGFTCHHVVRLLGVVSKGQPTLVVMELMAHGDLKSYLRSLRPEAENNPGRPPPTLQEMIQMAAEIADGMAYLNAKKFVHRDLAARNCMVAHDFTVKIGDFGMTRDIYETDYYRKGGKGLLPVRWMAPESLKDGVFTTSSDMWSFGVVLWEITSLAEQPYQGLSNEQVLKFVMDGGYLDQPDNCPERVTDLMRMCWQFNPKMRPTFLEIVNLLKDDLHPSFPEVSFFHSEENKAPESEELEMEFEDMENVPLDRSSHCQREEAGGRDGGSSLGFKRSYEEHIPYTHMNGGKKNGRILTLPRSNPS
Sequence of EGFR (P00533 25-1210, species assumed): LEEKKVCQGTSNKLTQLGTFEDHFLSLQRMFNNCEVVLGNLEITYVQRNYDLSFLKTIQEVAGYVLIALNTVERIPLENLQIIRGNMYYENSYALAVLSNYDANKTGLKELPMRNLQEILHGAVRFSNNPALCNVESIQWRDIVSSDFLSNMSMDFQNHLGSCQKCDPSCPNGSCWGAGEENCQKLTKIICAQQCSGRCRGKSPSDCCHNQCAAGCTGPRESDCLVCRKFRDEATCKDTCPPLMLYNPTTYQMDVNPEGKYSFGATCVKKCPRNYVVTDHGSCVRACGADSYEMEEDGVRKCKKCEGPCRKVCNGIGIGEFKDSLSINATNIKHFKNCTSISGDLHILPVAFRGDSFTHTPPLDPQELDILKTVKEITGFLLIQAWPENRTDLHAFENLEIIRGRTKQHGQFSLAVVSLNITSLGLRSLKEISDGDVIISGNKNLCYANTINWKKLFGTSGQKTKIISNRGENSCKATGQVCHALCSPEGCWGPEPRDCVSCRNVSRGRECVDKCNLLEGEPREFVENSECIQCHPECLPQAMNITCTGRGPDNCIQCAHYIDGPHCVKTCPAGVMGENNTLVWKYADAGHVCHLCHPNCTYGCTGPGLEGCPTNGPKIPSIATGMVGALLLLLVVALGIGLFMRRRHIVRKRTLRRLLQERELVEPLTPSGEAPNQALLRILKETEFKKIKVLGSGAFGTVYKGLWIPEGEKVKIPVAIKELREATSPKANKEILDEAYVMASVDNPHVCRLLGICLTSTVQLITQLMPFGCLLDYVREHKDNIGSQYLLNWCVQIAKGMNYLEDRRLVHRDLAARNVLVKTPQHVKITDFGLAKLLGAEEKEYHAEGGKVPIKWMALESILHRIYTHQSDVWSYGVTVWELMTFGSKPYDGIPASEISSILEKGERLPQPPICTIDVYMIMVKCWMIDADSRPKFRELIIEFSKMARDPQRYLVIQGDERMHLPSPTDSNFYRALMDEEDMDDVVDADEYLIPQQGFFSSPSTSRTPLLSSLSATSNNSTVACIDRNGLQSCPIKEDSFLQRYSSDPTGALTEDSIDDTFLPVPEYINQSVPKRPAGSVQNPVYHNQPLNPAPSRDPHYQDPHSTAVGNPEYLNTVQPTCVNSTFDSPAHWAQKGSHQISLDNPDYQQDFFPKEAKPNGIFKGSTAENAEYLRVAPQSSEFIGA

As for `CCN1CCC(Nc2ccc3c(c2)/C(=C(\c2ccc(C)c(F)c2)c2nc(C)c[nH]2)C(=O)N3)CC1` [Entry 67, (3Z)-5-[(1-ethylpiperidin-4-yl)amino]-3-[(3-fluoro-4-methylphenyl) (4-methyl-1H-imidazol-2-yl)methylidene]-1,3-dihydro-2H-indol-2-one], the IC50 is < 0.05 µM in assay [1]; 0.05 to 0.5 µM in assay [2]; < 0.05 µM in assay [3]; < 0.05 µM in [4]; < 0.05 µM in assay [5]; < 0.05 µM in [6]. The IC50 was < 0.05 µM in assay [7] and 0.5 to 5 µM in assay [8].
In the case of `COCCN1CCC(Nc2ccc3c(c2)/C(=C(\c2ccc(C)c(F)c2)c2nc(C)c[nH]2)C(=O)N3)CC1` [Entry 97], the IC50 in [1] is < 0.05 µM; in assay [2] it was 0.5 to 5 µM; in [3] it was < 0.05 µM; in [4] it was < 0.05 µM; in assay [5] it was < 0.05 µM; in assay [7], < 0.05 µM. For the same compound, the IC50 in [8] fell in the range of 0.5 to 5 µM.
Regarding `CCN1CCC(Nc2ccc3c(c2)/C(=C(\c2ccc(C)c(F)c2)c2ncc[nH]2)C(=O)N3)CC1` [Entry 57, (3Z)-5-[(1-ethylpiperidin-4-yl)amino]-3-[(3-fluoro-4-methylphenyl)(1H-imidazol-2-yl)methylidene]-1,3-dihydro-2H-indol-2-one], the half-inhibitory concentration (IC50) was < 0.05 µM in [1]; 0.05 to 0.5 µM in assay [2]; 0.05 to 0.5 µM in [4]; < 0.05 µM in [5]; < 0.05 µM in assay [6]; < 0.05 µM in assay [7]. In assay [8], this compound displayed a 50% inhibitory concentration (IC50) of 0.5 to 5 µM.
For the compound `CCN1CCC(Nc2ccc3c(c2)/C(=C(\c2ccc(C(F)(F)F)cc2)c2ncc[nH]2)C(=O)N3)CC1` [Entry 60, (3Z)-5-[(1-ethylpiperidin-4-yl)amino]-3-{1H-imidazol-2-yl[4-(trifluoromethyl)phenyl]methylidene}-1,3-dihydro-2H-indol-2-one], the half-maximal inhibitory concentration (IC50) was < 0.05 µM in assay [1]; 0.05 to 0.5 µM in [9]; 0.5 to 5 µM in assay [2]; 0.5 to 5 µM in assay [3]; < 0.05 µM in [5]; < 0.05 µM in assay [6]. For the same compound, the IC50 was < 0.05 µM in assay [7] and > 5 µM in assay [8].
In the case of `CCN1CCC(Nc2ccc3c(c2)/C(=C(\c2ccc(F)c(F)c2)c2nc(C)c[nH]2)C(=O)N3)CC1` [Entry 104, (3Z)-3-[(3,4-difluorophenyl)(4-methyl-1H-imidazol-2-yl)methylidene]-5-[(1-ethylpiperidin-4-yl)amino]-1,3-dihydro-2H-indol-2-one], the IC50 in assay [1] is < 0.05 µM; in [9], 0.05 to 0.5 µM; in assay [2], 0.5 to 5 µM; in assay [3], < 0.05 µM; in [5], < 0.05 µM; in assay [6], < 0.05 µM. Besides, the half-maximal inhibitory concentration (IC50) is < 0.05 µM in assay [7] and > 5 µM in assay [8].
With `CCN1CCC(Nc2ccc3c(c2)/C(=C(\c2ccc(F)c(F)c2)c2ncc[nH]2)C(=O)N3)CC1` [Entry 54, (3Z)-3-[(3,4-difluorophenyl)(1H-imidazol-2-yl)methylidene]-5-[(1-ethylpiperidin-4-yl)amino]-1,3-dihydro-2H-indol-2-one], the IC50 was < 0.05 µM in [1]; 0.05 to 0.5 µM in assay [9]; 0.5 to 5 µM in assay [2]; 0.5 to 5 µM in assay [3]; < 0.05 µM in [5]; < 0.05 µM in assay [6]. In addition, the figures for the 50% inhibitory concentration (IC50) in assay [7] and in assay [8] were < 0.05 µM and > 5 µM, respectively.
On to `CCN1CCC(Nc2ccc3c(c2)/C(=C(\c2ccc(C)cc2)c2ncc[nH]2)C(=O)N3)CC1` [Entry 13, (3Z)-5-[(1-ethylpiperidin-4-yl)amino]-3-[1H-imidazol-2-yl(4-methylphenyl)methylidene]-1,3-dihydro-2H-indol-2-one], for which the IC50 in [1] was < 0.05 µM; in [9], 0.05 to 0.5 µM; in assay [2], 0.05 to 0.5 µM; in assay [10], 0.05 to 0.5 µM; in [3], 0.05 to 0.5 µM; in [5], < 0.05 µM. For the same compound, the IC50 in [6] was < 0.05 µM; in assay [7], < 0.05 µM; in assay [8], 0.5 to 5 µM.
Regarding `CCN1CCC(Nc2ccc3c(c2)/C(=C(\c2ccc(C(F)(F)F)cc2)c2nc(C)c[nH]2)C(=O)N3)CC1` [Entry 101], the IC50 in [1] was < 0.05 µM; in [9] it was 0.05 to 0.5 µM; in assay [2], 0.5 to 5 µM; in assay [3], 0.05 to 0.5 µM; in assay [5], < 0.05 µM; in assay [6] it was < 0.05 µM. For the same compound, the IC50 in [7] is < 0.05 µM; in assay [8], 0.5 to 5 µM.
Consider `CCN1CCC(Nc2ccc3c(c2)/C(=C(/c2ncc[nH]2)c2ccccc2F)C(=O)N3)CC1` [Entry 107, (3Z)-5-[(1-ethylpiperidin-4-yl)amino]-3-[(2-fluorophenyl)(1H-imidazol-2-yl)methylidene]-1,3-dihydro-2H-indol-2-one], for which the IC50 in [1] was < 0.05 µM; in assay [9], < 0.05 µM; in [2], 0.5 to 5 µM; in assay [3], 0.05 to 0.5 µM; in [5], < 0.05 µM; in [6], < 0.05 µM. Also, the figures for the concentration for half-maximal inhibition (IC50) in assay [7] and in assay [8] were < 0.05 µM and 0.5 to 5 µM, respectively.
With `CCN1CCC(Nc2ccc3c(c2)/C(=C(/c2ncc[nH]2)c2cccc(F)c2F)C(=O)N3)CC1` [Entry 109, (3Z)-3-[(2,3-difluorophenyl)(1H-imidazol-2-yl)methylidene]-5-[(1-ethylpiperidin-4-yl)amino]-1,3-dihydro-2H-indol-2-one], the IC50 in [1] was < 0.05 µM; in assay [9] it was < 0.05 µM; in [2], 0.5 to 5 µM; in assay [3] it was 0.05 to 0.5 µM; in assay [5] it was < 0.05 µM; in [6], < 0.05 µM. In addition, the IC50 in assay [7] is < 0.05 µM; in assay [8], 0.5 to 5 µM.
As for `CCN1CCC(Nc2ccc3c(c2)/C(=C(\c2ccc(C(F)(F)F)c(F)c2)c2ncc[nH]2)C(=O)N3)CC1` [Entry 65, (3Z)-5-[(1-ethylpiperidin-4-yl)amino]-3-[[3-fluoro-4-(trifluoromethyl)phenyl](1H-imidazol-2-yl)methylidene]-1,3-dihydro-2H-indol-2-one], the IC50 in [1] is < 0.05 µM; in assay [9] it was 0.05 to 0.5 µM; in [2] it was 0.5 to 5 µM; in assay [3] it was 0.05 to 0.5 µM; in assay [5] it was < 0.05 µM; in assay [6] it was < 0.05 µM. For the same compound, the IC50 in assay [7] was < 0.05 µM; in assay [8], > 5 µM.
On to `COCCN1CCC(Nc2ccc3c(c2)/C(=C(\c2cccc(F)c2)c2ncc[nH]2)C(=O)N3)CC1` [Entry 41, (3Z)-3-[(3-fluorophenyl)(1H-imidazol-2-yl)methylidene]-5-({1-[2-(methyloxy)ethyl]piperidin-4-yl}amino)-1,3-dihydro-2H-indol-2-one], for which the half-inhibitory concentration (IC50) is < 0.05 µM in [1]; 0.05 to 0.5 µM in assay [9]; 0.5 to 5 µM in assay [2]; 0.05 to 0.5 µM in [10]; 0.05 to 0.5 µM in assay [3]; < 0.05 µM in [5]. In addition, the 50% inhibitory concentration (IC50) is < 0.05 µM in [6], < 0.05 µM in [7] and 0.5 to 5 µM in [8].
